# The source made the active and inactive calls. The rule behind the calls is not given here.
# Experiments:
# [1] = biological target: Transcription factor p65 (Homo sapiens) (UniProt Q04206); assay: Inhibition of NF-kappaB-65 (unknown origin) expressed in TNFalpha-stimulated HEK293 cells assessed inhibition of nuclear translocation at 8 uM after 3 hrs; format: cell-based
# Mus musculus [2] = assay: Antiphotoaging activity in DBA-2 mouse assessed as reduction of UVB-induced PCNA-positive cell in ear tissue at 92.4 to 462.2 mg/kg, po as powder qd for 12 days; format: functional, organism-based
# Mus musculus [3] = assay: Antiphotoaging activity in DBA-2 mouse assessed as reduction of UVB-induced epidermal hyperproliferation in ear tissue at 92.4 mg/kg, po as powder qd for 12 days relative to untreated control; format: functional, organism-based; design: dose 92.4 mg/kg
# [4] = biological target: Transcription factor p65 (Homo sapiens) (UniProt Q04206); assay: Inhibition of NF-kappaB-65 (unknown origin) expressed in human keratinocytes assessed as inhibition of bFGF production at 4 uM by EIA; format: cell-based
# [5] = biological target: Transcription factor p65 (Homo sapiens) (UniProt Q04206); assay: Inhibition of NF-kappaB-65 (unknown origin)-mediated transactivation in TNFalpha-stimulated HEK293 cells assessed inhibition of I-kappaB phosphorylation and degradation after 24 hrs; format: cell-based
# Mus musculus [6] = assay: Antiphotoaging activity in DBA-2 mouse assessed as reduction of UVB-induced epidermal hyperproliferation in ear tissue administered as po as powder qd for 12 days relative to untreated control; format: functional, organism-based
# Mus musculus [7] = assay: Antiphotoaging activity in DBA-2 mouse assessed as reduction of UVB-induced epidermal hyperproliferation in ear tissue at 462.2 mg/kg, po as powder qd for 12 days relative to untreated control; format: functional
# HEK293 = assay: Inhibition of NF-kappaB (unknown origin) expressed in TNFalpha-stimulated HEK293 cells expressing pGL3-Luc assessed inhibition of transactivation activity after 24 hrs by luciferase assay; format: cell-based; settings: Homo sapiens
# [8] = biological target: Transcription factor p65 (Homo sapiens) (UniProt Q04206); assay: Inhibition of NF-kappaB p65 expressed in human keratinocytes co-cultured with human epidermal melanocytes assessed as inhibition of melanocyte proliferation at 4 uM by WST-1 assay; format: cell-based
# Mus musculus [9] = assay: Antiphotoaging activity in DBA-2 mouse assessed as reduction of UVB-induced melanocyte proliferation in ear tissue at 92.4 to 462.2 mg/kg, po as powder qd for 12 days relative to untreated control; format: functional; settings: dose mg/kg 92.4-462.2
# [10] = biological target: Transcription factor p65 (Homo sapiens) (UniProt Q04206); assay: Inhibition of NF-kappaB-65 (unknown origin) expressed in human dermal fibroblasts assessed as inhibition of MMP1 production at 4 uM by EIA
# Transcription factor p65 (Homo sapiens), sequence (Q04206 whole entry): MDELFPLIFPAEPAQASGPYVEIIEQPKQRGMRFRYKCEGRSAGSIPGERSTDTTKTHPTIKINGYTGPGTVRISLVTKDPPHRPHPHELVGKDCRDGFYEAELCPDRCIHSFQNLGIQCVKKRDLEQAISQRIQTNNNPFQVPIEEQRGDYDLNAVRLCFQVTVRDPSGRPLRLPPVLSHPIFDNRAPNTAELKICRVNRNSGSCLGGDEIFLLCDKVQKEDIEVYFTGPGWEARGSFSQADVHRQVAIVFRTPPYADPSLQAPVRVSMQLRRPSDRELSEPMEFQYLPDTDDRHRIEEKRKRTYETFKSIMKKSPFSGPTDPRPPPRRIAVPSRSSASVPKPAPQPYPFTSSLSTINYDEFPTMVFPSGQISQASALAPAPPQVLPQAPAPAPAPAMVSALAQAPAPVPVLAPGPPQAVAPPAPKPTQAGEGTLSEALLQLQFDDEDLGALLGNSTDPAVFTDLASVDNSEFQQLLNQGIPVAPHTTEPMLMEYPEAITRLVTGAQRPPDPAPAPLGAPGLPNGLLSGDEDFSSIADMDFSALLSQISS
smiles,measurement,setting,value
C=C(CO)C(=O)O[C@H]1CC(=C)[C@@H]2C[C@H](O)C(=C)[C@@H]2[C@H]2OC(=O)C(=C)[C@@H]21 [CYNAROPICRIN],inhibition,[1],Active
same,Activity,Mus musculus [2],inactive
same,Activity,Mus musculus [3],Active
same,inhibition,[4],Active
same,inhibition,[5],Dose-dependent effect
same,Activity,Mus musculus [6],Dose-dependent effect
same,fold change (FC),Mus musculus [7],1.7
same,inhibition,HEK293,Dose-dependent effect
same,inhibition,[8],Active
same,fold change (FC),Mus musculus [9],4.3
same,inhibition,[10],Active
